Columns and labels:
[1] = system: Tyrosine-protein kinase ABL1 (Homo sapiens), P00519 [Q252H]; details: Compound concentration 1000.0 nM
[2] = target: Inhibitor of nuclear factor kappa-B kinase subunit epsilon (Homo sapiens) (UniProt Q14164); details: Compound concentration 1000.0 nM
[3] = target: Serine/threonine-protein kinase WNK3 (Homo sapiens) (UniProt Q9BYP7); details: Compound concentration 1000.0 nM
[4] = target: Rhodopsin kinase GRK7 (Homo sapiens) (UniProt Q8WTQ7); details: Compound concentration 1000.0 nM
[5] = target: Dual specificity mitogen-activated protein kinase kinase 7 (Homo sapiens) (UniProt O14733); details: Compound concentration 1000.0 nM
[6] = target: Serine/threonine-protein kinase 3 (Homo sapiens) (UniProt Q13188); details: Compound concentration 1000.0 nM
[7] = target: Serine/threonine-protein kinase Nek11 (Homo sapiens) (UniProt Q8NG66); details: Compound concentration 1000.0 nM
Chain of Serine/threonine-protein kinase Nek11 (Homo sapiens) (Q8NG66 whole entry): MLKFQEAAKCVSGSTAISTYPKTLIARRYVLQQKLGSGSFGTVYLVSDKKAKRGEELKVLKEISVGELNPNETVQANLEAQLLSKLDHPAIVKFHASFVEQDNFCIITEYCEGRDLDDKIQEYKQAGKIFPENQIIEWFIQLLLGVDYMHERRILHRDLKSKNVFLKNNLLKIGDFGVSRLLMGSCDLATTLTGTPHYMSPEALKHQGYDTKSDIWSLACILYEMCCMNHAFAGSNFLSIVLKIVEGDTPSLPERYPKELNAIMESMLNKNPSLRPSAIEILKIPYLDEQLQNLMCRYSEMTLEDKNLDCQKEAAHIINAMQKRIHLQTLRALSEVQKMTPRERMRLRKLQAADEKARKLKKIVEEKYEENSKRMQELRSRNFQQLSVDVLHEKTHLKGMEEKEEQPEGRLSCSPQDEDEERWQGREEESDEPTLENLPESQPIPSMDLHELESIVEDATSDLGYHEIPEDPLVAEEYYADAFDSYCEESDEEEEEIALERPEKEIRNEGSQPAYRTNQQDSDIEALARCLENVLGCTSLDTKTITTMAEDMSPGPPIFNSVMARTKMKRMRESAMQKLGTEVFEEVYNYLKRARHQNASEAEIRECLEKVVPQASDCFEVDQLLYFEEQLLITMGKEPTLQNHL

[8] = target: Sodium-dependent serotonin transporter (Homo sapiens) (UniProt P31645); details: Compound concentration 10.0 uM
[9] = target: Calcium/calmodulin-dependent protein kinase type II subunit beta (Homo sapiens) (UniProt Q13554); details: Compound concentration 1000.0 nM
[10] = target: Serine/threonine-protein kinase OSR1 (Homo sapiens) (UniProt O95747); details: Compound concentration 1000.0 nM
Chain of Serine/threonine-protein kinase OSR1 (Homo sapiens) (O95747 2-527 limits assumed): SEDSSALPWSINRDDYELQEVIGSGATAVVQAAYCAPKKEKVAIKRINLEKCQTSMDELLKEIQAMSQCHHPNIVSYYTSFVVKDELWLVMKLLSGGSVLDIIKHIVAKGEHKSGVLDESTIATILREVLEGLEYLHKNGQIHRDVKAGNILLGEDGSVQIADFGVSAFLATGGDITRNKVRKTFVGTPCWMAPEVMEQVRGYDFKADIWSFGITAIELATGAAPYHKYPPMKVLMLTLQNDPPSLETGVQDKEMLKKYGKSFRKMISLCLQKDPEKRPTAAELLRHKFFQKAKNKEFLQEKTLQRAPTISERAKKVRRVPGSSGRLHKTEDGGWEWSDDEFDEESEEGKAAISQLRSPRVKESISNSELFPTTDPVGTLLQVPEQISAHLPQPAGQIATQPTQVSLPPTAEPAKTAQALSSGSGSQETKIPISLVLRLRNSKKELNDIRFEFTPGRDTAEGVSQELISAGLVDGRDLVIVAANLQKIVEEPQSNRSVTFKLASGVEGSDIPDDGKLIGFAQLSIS

[11] = target: Serine/threonine-protein kinase 26 (Homo sapiens) (UniProt Q9P289); details: Compound concentration 1000.0 nM
[12] = target: Mitogen-activated protein kinase kinase kinase kinase 4 (Homo sapiens) (UniProt O95819); details: Compound concentration 1000.0 nM
[13] = target: Ribosomal protein S6 kinase alpha-6 (Homo sapiens) (UniProt Q9UK32); details: Compound concentration 1000.0 nM
[14] = target: Calcium/calmodulin-dependent protein kinase type 1G (Homo sapiens) (UniProt Q96NX5); details: Compound concentration 1000.0 nM
[15] = target: Serine/threonine-protein kinase Nek6 (Homo sapiens) (UniProt Q9HC98); details: Compound concentration 1000.0 nM
Chain of Serine/threonine-protein kinase Nek6 (Homo sapiens) (Q9HC98 whole entry, the tested form may be a part): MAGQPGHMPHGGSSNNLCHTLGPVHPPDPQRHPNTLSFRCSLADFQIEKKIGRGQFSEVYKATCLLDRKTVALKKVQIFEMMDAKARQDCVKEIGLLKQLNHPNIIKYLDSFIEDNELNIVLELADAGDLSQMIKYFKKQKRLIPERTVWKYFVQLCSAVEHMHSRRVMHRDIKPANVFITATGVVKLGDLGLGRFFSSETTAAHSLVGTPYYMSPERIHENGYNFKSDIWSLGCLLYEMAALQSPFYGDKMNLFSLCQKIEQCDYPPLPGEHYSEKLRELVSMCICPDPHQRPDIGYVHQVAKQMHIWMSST

[16] = target: Phosphatidylinositol 3-kinase C2 domain-containing subunit gamma (Homo sapiens) (UniProt O75747); details: Compound concentration 1000.0 nM
Chain of Phosphatidylinositol 3-kinase C2 domain-containing subunit gamma (Homo sapiens) (O75747 whole entry, the tested form may be a part): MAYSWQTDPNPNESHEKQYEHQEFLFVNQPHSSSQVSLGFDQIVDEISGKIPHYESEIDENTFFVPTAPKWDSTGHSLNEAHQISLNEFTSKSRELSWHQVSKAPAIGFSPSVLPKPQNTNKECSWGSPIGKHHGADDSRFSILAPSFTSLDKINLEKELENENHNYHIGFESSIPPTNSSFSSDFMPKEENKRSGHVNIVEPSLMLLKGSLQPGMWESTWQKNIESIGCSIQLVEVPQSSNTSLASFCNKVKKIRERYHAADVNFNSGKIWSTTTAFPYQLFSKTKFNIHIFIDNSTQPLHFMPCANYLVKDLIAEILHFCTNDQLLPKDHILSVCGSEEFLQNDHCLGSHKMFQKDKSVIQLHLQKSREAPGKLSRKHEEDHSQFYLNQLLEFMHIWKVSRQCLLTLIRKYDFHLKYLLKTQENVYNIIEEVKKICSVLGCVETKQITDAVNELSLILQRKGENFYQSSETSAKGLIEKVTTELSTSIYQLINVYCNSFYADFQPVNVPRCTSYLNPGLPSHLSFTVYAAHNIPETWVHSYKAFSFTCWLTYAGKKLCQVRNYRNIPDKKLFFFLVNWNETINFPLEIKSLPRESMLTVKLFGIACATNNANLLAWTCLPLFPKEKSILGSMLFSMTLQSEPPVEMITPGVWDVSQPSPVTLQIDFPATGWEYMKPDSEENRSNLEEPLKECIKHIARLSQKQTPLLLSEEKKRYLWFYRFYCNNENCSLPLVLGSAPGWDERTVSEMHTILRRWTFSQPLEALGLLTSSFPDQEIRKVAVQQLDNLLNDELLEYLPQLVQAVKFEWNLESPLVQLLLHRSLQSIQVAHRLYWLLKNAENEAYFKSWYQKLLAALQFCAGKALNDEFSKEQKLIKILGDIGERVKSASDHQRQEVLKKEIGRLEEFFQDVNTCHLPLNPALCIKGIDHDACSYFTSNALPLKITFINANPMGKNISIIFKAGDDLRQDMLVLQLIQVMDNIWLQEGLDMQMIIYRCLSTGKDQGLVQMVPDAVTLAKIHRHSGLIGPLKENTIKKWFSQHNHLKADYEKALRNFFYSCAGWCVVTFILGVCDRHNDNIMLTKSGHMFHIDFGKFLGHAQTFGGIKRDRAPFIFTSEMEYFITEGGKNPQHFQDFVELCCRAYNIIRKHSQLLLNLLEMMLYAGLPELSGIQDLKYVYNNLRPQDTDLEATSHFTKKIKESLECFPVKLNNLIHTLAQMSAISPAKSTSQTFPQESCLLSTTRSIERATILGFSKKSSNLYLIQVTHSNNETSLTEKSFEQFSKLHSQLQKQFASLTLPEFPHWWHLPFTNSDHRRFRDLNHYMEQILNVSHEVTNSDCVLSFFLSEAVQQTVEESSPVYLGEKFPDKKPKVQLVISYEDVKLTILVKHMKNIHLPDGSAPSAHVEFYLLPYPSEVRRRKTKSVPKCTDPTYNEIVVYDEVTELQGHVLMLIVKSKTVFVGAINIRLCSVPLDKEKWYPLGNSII

[17] = target: Serine/threonine-protein kinase Sgk2 (Homo sapiens) (UniProt Q9HBY8); details: Compound concentration 1000.0 nM
[18] = target: Tyrosine-protein kinase ABL2 (Homo sapiens) (UniProt P42684); details: Compound concentration 1000.0 nM
[19] = target: Myotonin-protein kinase (Homo sapiens) (UniProt Q09013); details: Compound concentration 1000.0 nM
[20] = target: Eukaryotic translation initiation factor 2-alpha kinase 1 (Homo sapiens) (UniProt Q9BQI3); details: Compound concentration 1000.0 nM
Chain of Eukaryotic translation initiation factor 2-alpha kinase 1 (Homo sapiens) (Q9BQI3 whole entry): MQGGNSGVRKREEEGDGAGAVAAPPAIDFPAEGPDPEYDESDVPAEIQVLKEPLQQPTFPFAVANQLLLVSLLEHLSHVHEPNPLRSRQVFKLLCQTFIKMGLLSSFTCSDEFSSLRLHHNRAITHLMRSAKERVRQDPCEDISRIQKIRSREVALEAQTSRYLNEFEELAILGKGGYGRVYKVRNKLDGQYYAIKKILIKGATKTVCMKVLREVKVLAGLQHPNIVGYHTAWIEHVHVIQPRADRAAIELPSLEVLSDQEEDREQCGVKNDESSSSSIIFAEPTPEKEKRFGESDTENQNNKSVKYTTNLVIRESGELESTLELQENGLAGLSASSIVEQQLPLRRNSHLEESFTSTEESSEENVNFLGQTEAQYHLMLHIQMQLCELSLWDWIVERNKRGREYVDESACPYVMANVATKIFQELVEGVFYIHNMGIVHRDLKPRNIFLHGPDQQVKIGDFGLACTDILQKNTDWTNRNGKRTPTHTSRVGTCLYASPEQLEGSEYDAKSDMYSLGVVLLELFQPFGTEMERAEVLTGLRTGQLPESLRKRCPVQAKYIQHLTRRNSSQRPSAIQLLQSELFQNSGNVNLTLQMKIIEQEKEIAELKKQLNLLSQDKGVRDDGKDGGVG

[21] = target: 5'-AMP-activated protein kinase catalytic subunit alpha-2 (Homo sapiens) (UniProt P54646); details: Compound concentration 1000.0 nM
[22] = target: Casein kinase I isoform alpha-like (Homo sapiens) (UniProt Q8N752); details: Compound concentration 1000.0 nM
[23] = target: Delta-type opioid receptor (Homo sapiens) (UniProt P41143); details: Compound concentration 10.0 uM
Chain of Delta-type opioid receptor (Homo sapiens) (P41143 whole entry): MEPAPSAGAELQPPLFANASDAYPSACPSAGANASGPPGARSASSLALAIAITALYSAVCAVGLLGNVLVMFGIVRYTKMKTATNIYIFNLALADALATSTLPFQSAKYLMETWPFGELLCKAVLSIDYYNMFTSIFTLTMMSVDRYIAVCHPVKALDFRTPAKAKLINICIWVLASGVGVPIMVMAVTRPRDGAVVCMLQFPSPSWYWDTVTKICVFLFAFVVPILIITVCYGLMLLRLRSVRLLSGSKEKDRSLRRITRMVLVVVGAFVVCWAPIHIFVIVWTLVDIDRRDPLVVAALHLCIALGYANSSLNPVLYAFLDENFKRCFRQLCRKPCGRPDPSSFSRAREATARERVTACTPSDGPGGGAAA

[24] = target: Bone morphogenetic protein receptor type-2 (Homo sapiens) (UniProt Q13873); details: Compound concentration 1000.0 nM
[25] = system: Hepatocyte growth factor receptor (Homo sapiens), P08581 [M1250T]; details: Compound concentration 1000.0 nM
[26] = target: Phosphatidylinositol 4,5-bisphosphate 3-kinase catalytic subunit delta isoform (Homo sapiens) (UniProt O00329); details: Compound concentration 1000.0 nM
[27] = system: Receptor-type tyrosine-protein kinase FLT3 (Homo sapiens), P36888 [K663Q]; details: Compound concentration 1000.0 nM
[28] = system: Tyrosine-protein kinase ABL1 (Homo sapiens), P00519 [H396P]; details: Compound concentration 1000.0 nM
[29] = target: Muscarinic acetylcholine receptor M4 (Homo sapiens) (UniProt P08173); details: Compound concentration 10.0 uM
[30] = target: Dual specificity mitogen-activated protein kinase kinase 6 (Homo sapiens) (UniProt P52564); details: Compound concentration 1000.0 nM
[31] = target: Protein kinase C theta type (Homo sapiens) (UniProt Q04759); details: Compound concentration 1000.0 nM
[32] = target: NUAK family SNF1-like kinase 2 (Homo sapiens) (UniProt Q9H093); details: Compound concentration 1000.0 nM
[33] = target: Serine/threonine-protein kinase Chk2 (Homo sapiens) (UniProt O96017); details: Compound concentration 1000.0 nM
[34] = target: Ephrin type-A receptor 5 (Homo sapiens) (UniProt P54756); details: Compound concentration 1000.0 nM
Chain of Ephrin type-A receptor 5 (Homo sapiens) (P54756 whole entry): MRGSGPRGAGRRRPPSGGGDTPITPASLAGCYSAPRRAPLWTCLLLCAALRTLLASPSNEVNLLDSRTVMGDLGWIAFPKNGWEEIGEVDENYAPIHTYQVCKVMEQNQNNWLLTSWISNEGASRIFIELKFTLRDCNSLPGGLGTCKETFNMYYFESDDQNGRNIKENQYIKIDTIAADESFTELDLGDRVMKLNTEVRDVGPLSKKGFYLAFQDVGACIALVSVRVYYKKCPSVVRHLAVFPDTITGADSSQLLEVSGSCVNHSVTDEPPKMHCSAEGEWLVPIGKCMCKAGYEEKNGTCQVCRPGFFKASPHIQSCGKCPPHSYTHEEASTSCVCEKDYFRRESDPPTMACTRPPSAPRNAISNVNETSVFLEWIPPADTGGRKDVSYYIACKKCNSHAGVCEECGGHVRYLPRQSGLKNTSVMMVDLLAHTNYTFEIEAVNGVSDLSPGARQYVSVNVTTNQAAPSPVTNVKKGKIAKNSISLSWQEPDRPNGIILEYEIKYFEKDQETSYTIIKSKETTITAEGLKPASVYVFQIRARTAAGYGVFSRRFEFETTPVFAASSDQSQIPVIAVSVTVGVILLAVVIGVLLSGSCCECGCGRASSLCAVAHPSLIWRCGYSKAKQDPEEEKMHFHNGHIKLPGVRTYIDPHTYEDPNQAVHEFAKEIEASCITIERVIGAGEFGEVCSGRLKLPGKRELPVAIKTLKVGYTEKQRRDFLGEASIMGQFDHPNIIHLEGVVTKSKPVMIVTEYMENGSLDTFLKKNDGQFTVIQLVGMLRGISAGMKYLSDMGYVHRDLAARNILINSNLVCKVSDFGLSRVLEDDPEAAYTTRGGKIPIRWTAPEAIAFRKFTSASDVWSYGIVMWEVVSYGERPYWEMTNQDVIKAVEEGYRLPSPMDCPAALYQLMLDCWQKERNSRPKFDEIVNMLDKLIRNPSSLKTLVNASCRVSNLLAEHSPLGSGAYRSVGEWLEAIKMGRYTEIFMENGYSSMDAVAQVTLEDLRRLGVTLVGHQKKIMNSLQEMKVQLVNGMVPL

[35] = target: Serine/threonine-protein kinase LATS2 (Homo sapiens) (UniProt Q9NRM7); details: Compound concentration 1000.0 nM
[36] = target: Beta-adrenergic receptor kinase 1 (Homo sapiens) (UniProt P25098); details: Compound concentration 1000.0 nM
[37] = target: Serine/threonine-protein kinase tousled-like 2 (Homo sapiens) (UniProt Q86UE8); details: Compound concentration 1000.0 nM
[38] = target: LIM domain kinase 1 (Homo sapiens) (UniProt P53667); details: Compound concentration 1000.0 nM
[39] = target: Alpha-2B adrenergic receptor (Homo sapiens) (UniProt P18089); details: Compound concentration 10.0 uM
[40] = target: Mitogen-activated protein kinase kinase kinase 5 (Homo sapiens) (UniProt Q99683); details: Compound concentration 1000.0 nM
[41] = target: Ribosomal protein S6 kinase alpha-1 (Homo sapiens) (UniProt Q15418); details: Compound concentration 1000.0 nM
[42] = target: Dual specificity protein kinase CLK3 (Homo sapiens) (UniProt P49761); details: Compound concentration 1000.0 nM
[43] = target: Mitogen-activated protein kinase 6 (Homo sapiens) (UniProt Q16659); details: Compound concentration 1000.0 nM
[44] = target: Calcium/calmodulin-dependent protein kinase type II subunit gamma (Homo sapiens) (UniProt Q13555); details: Compound concentration 1000.0 nM
[45] = target: Sigma non-opioid intracellular receptor 1 (Homo sapiens) (UniProt Q99720); details: Compound concentration 10.0 uM

## CS(=O)(=O)c1cc(C2(NC(=O)c3cncc4c3cnn4-c3ccc(F)cc3)CC2)ccn1 [BI 639667]
[1]
  residual activity: 80%
[2]
  residual activity: 100%
[3]
  residual activity: 100%
[4]
  residual activity: 96%
[5]
  residual activity: 91%
[6]
  residual activity: 100%
[7]
  residual activity: 100%
[8]
  inhibition: -2.94%
[9]
  residual activity: 100%
[10]
  residual activity: 85%
[11]
  residual activity: 97%
[12]
  residual activity: 88%
[13]
  residual activity: 64%
[14]
  residual activity: 100%
[15]
  residual activity: 100%
[16]
  residual activity: 93%
[17]
  residual activity: 67%
[18]
  residual activity: 95%
[19]
  residual activity: 99%
[20]
  residual activity: 73%
[21]
  residual activity: 100%
[22]
  residual activity: 100%
[23]
  inhibition: -5.92%
[24]
  residual activity: 99%
[25]
  residual activity: 82%
[26]
  residual activity: 100%
[27]
  residual activity: 100%
[28]
  residual activity: 100%
[29]
  inhibition: 13.3%
[30]
  residual activity: 74%
[31]
  residual activity: 99%
[32]
  residual activity: 100%
[33]
  residual activity: 100%
[34]
  residual activity: 100%
[35]
  residual activity: 100%
[36]
  residual activity: 48%
[37]
  residual activity: 100%
[38]
  residual activity: 100%
[39]
  inhibition: 13.2%
[40]
  residual activity: 97%
[41]
  residual activity: 79%
[42]
  residual activity: 86%
[43]
  residual activity: 100%
[44]
  residual activity: 72%
[45]
  inhibition: 26.4%

## CS(=O)(=O)NCC[C@H](NC(=O)c1cncc2c1cnn2-c1ccc(F)cc1)c1ccnc(S(C)(=O)=O)c1 [BI 9307]
[1]
  residual activity: 81%
[2]
  residual activity: 78%
[3]
  residual activity: 100%
[4]
  residual activity: 100%
[5]
  residual activity: 100%
[6]
  residual activity: 100%
[7]
  residual activity: 100%
[8]
  inhibition: -7.52%
[9]
  residual activity: 100%
[10]
  residual activity: 88%
[11]
  residual activity: 98%
[12]
  residual activity: 86%
[13]
  residual activity: 100%
[14]
  residual activity: 100%
[15]
  residual activity: 100%
[16]
  residual activity: 86%
[17]
  residual activity: 94%
[18]
  residual activity: 93%
[19]
  residual activity: 100%
[20]
  residual activity: 100%
[21]
  residual activity: 97%
[22]
  residual activity: 94%
[23]
  inhibition: -2.19%
[24]
  residual activity: 100%
[25]
  residual activity: 88%
[26]
  residual activity: 100%
[27]
  residual activity: 100%
[28]
  residual activity: 100%
[29]
  inhibition: 10.8%
[30]
  residual activity: 82%
[31]
  residual activity: 100%
[32]
  residual activity: 100%
[33]
  residual activity: 77%
[34]
  residual activity: 100%
[35]
  residual activity: 97%
[36]
  residual activity: 100%
[37]
  residual activity: 100%
[38]
  residual activity: 100%
[39]
  inhibition: -2.26%
[40]
  residual activity: 96%
[41]
  residual activity: 100%
[42]
  residual activity: 99%
[43]
  residual activity: 100%
[44]
  residual activity: 99%
[45]
  inhibition: 7.62%
